Assay results reported in US6949250B2, “Selective algaecides for control of cyanochloronta” (The United States of America as represented by the …, priority 2002, dated 2005).
In brackets after ≈: the same amount, converted by molar mass. Entries after “also recorded” stand apart in the source; their conditions may differ. Like-named read-outs stand apart in the source and are kept apart here.

How the values were obtained:
[1] = system: O. perornata; details: cited from earlier work
[2] = system: O. perornata; experiment: Pond efficacy testing of 9,10-anthraquinone using limnocorrals: O. perornata numbers; format: in vivo, Oscillatoria perornata; details: dissolved in ethanol, unpublished observations
From the text: (§1) Previous research (K. K. Schrader, M. Q. de Regt, P. D. Tidwell, C. S. Tucker and S. O. Duke, Selective growth inhibition of the musty-odor producing cyanobacterium Oscillatoria cf. chalybea by natural compounds. Bull. Environ. Contam. Toxicol. (1998a), vol. 60, pp. 651-658) has identified several natural compounds from plants that are selectively toxic towards O. perornata.

[3] = system: MIB; experiment: Pond efficacy testing of 9,10-anthraquinone using limnocorrals: MIB levels; format: in vivo; details: dissolved in ethanol, unpublished observations
From the text: as §1

[4] = system: Selenastrum capricornutum; experiment: Rapid bioassay screening for selective algicides (LOEC, LCIC); format: cell-based; details: for MIC: read-out: LCIC (lowest-complete-inhibition concentration), Selenastrum capricornutum
From the text: (§2) These were screened in the laboratory by the method of Schrader et al. (K. K. Schrader, M. Q. de Regt, C. S. Tucker and S. O. Duke, A rapid bioassay for selective algicides. Weed Technol. (1997), vol. 11, pp. 767-774) for algicidal activity.
(§3) The anthraquinone derivatives were screened for selective toxicity towards Oscillatoria perornata, previously isolated from a Mississippi catfish pond, using the method of Schrader et al. (1997). The green alga Selenastrum capricornutum (obtained from the United States Environmental Protection Agency, Corvallis, Oreg.) was used as the representative green algal species in the bioassay since it is a common species found in southeastern United States catfish ponds. Absorbance readings were graphed, and graphs were used to determine the LOEC (lowest-observed-effect concentration) and the LCIC (lowest-complete-inhibition concentration) for each anthraquinone analog. In addition, a 96-hour 50% inhibition concentration (IC50) was determined for DNA1-19-1 and DNA2-59-1 by using the method described by Schrader et al. (1998b). Stock solutions of DNA1-19-1 and DNA2-59-1 were prepared so that final concentrations screened for 96-hour IC50 determinations were as follows: 1) 0, 0.01, 0.033, 0.1, 0.333, 1.0, 3.3, and 10.0 μM DNA1-19-1 for both O. perornata and S. capricornutum; 2) 0, 0.003, 0.01, 0.033, 0.1, 0.333, 1.0, and 3.333 μM DNA2-59-1 for O. perornata; and 3) 0, 0.1, 0.333, 1.0, 3.333, 10.0, 33.333, and 100.0 μM DNA2-59-1 for S. capricornutum. Estimation of the IC50 was determined by plotting 96-hour absorbance readings against logarithmic dilution values of the anthraquinone analogs. The screening results of the anthraquinone derivatives and commercially available analogs of anthraquinone are presented in Tables 1 and 2, respectively. The results in Table 1 reveal that DNA1-19-1 and DNA2-59-1 are the most promising analogs since these two compounds had the lowest LOEC and LCIC values for O. perornata (10 nM and 100 nM, respectively). Based upon IC50 results in Table 3, DNA2-59-1 appears to be more toxic and selective towards O. perornata than DNA1-19-1.
as §3, with “(A rapid bioassay for selective algicides. Weed Technol. (1997), vol. 11, pp. 767-774).” for “(1997).”, “(K. K. Schradar, M. Q. de Regt, P. D. Tidwell, C. S. Tucker and S. O. Duke, Selective growth inhibition of the musty-odor producing cyanobacterium Oscillatoria cf. chalybea by natural compounds. Bull. Environ. Contam. Toxicol. (1998a), vol.60, pp. 651-658).” for “(1998b).”, “The screening results of the anthraquinone derivatives and commercially available analogs of anthraquinone are presented in Tables 1 and 2, respectively. The results in Table 1 reveal that DNA1-19-1 and DNA2-59-1 are the most promising analogs since these two compounds had the lowest LOEC and LCIC values for O. perornata (10 nM and 100 nM, respectively). Based upon IC50 results in Table 3, DNA2-59-1 appears to be more toxic and selective towards O. perornata than DNA1-19-1.” left out

[5] = system: Oscillatoria perornata; experiment: as above; format: cell-based; details: for MIC: read-out: LCIC (lowest-complete-inhibition concentration), Oscillatoria perornata; for minimal effective concentration: read-out: LOEC (lowest-observed-effect concentration), Oscillatoria perornata
From the text: as §2, §3
as §3, with “(A rapid bioassay for selective algicides. Weed Technol. (1997), vol. 11, pp. 767-774).” for “(1997).”, “(K. K. Schradar, M. Q. de Regt, P. D. Tidwell, C. S. Tucker and S. O. Duke, Selective growth inhibition of the musty-odor producing cyanobacterium Oscillatoria cf. chalybea by natural compounds. Bull. Environ. Contam. Toxicol. (1998a), vol.60, pp. 651-658).” for “(1998b).”, “The screening results of the anthraquinone derivatives and commercially available analogs of anthraquinone are presented in Tables 1 and 2, respectively. The results in Table 1 reveal that DNA1-19-1 and DNA2-59-1 are the most promising analogs since these two compounds had the lowest LOEC and LCIC values for O. perornata (10 nM and 100 nM, respectively). Based upon IC50 results in Table 3, DNA2-59-1 appears to be more toxic and selective towards O. perornata than DNA1-19-1.” left out

[6] = Selenastrum capricornutum, rapid screening
[7] = Planktothrix perornata, rapid screening

SMILES | LCIC (lowest-complete-inhibition concentration), Selenastrum capricornutum ([4]; rapid screening) | LOEC (lowest-observed-effect concentration), Selenastrum capricornutum ([4]; rapid screening) | LCIC (lowest-complete-inhibition concentration), Oscillatoria perornata ([5]; rapid screening) | minimal effective concentration ([5]; rapid screening) | also measured
O=C1c2ccccc2C(=O)c2ccccc21 [9,10-anthraquinone] |  |  |  |  | effect on photosynthesis (result in words) ([1]; Schrader et al. 2000): inhibits photosynthesis; activity / toxicity towards O. perornata in the laboratory (result in words) ([1]; previous research (Schrader et al. 1998)): high degree of selective toxicity; also recorded: potent activity; reduction of numbers of O. perornata in pond (result in words) [2]: did not effectively reduce; reduction of MIB levels in pond (result in words) [3]: did not effectively reduce
COCCOCCOCCOCCOc1ccc2c(c1)C(=O)c1ccccc1C2=O [DNA3-55-1, 2-[2-[2-[2-(2-Methoxyethoxy)ethoxy]ethoxy]ethoxy]-9,10-anthraquinone] |  |  |  |  | MIC [4, 6]: > 100 µM; minimal effective concentration ([4]; Selenastrum capricornutum, rapid screening, read-out: LOEC (lowest-observed-effect concentration), Selenastrum capricornutum): > 100 µM; MIC [5, 7]: 100 µM (≈ 41.4 µg/mL); minimal effective concentration [5, 7]: 10000 nM
O=C1c2ccccc2C(=O)c2cc(COCCOCCOCCO)ccc21 [DNA3-57-1, 2-Methylene-[2-[2-(2-hydroxyethoxy)ethoxy]ethoxy]-9,10-anthraquinone] | >100,000 nM | >100,000 nM | 10,000 nM | 100 nM | 
O=C1c2ccccc2C(=O)c2cc(COCCOCCOCCOCCO)ccc21 [DNA3-59-1, 2-Methylene-[2-[2-[2-(2-hydroxyethoxy)ethoxy]ethoxy]ethoxy]-9,10-anthraquinone] | >100,000 nM | >100,000 nM | 100,000 nM | 100 nM | 
COCCOCCOCCOCc1ccc2c(c1)C(=O)c1ccccc1C2=O [DNA3-61-1, 2-methylene-[2-[2-(2-methoxyethoxy)ethoxy]ethoxy]-9,10-anthraquinone] | >100,000 nM | >100,000 nM | 10,000 nM | 100 nM | 
CCN(CC)Cc1cccc2c1C(=O)c1ccccc1C2=O [DNA4-39-1, 1-[Methylamino-N,N-(diethyl)]-9,10-anthraquinone monophosphate] | 10,000 nM | 10,000 nM | 1,000 nM | 100 nM | 
O=C1c2cccc(S(=O)(=O)O)c2C(=O)c2cccc(S(=O)(=O)O)c21 [anthraquinone-1,5-disulfonic acid, reference compound] |  |  |  |  | MIC [4, 6]: > 1000 µM; MIC [5, 7]: > 1000 µM
O=C(O)c1ccc2c(c1)C(=O)c1ccccc1C2=O [anthraquinone-2-carboxylic acid, reference compound] |  |  |  |  | MIC ([4]; Selenastrum capricornutum): > 1000 µM; MIC ([5]; Planktothrix perornata): > 1000 µM
